Experimental data taken from patent US9181305B2, “Exendin-4 peptide analogues” (SANOFI, priority 2012, dated 2015).
Converted amounts (≈) assume the structure as drawn. *1 amine or outer side, *2 acyl side, *3 side chain or, on linkers, in order; H or OH if unused. Where a SMILES comes first, the peptide text is derived from it. Side-chain parts run from the residue outwards. [ ]: non-standard residue; d: D form. The star is where a group is joined. γGlu = O=C(O)[C@H](CCC(=O)[*:2])N[*:1]; Palmitoyl = CCCCCCCCCCCCCCCC(=O)*

Assays:
[1] = physchem; assay type: physicochemical
Protocol: Prior to the testing of solubility and stability of a peptide batch, its content was determined. Therefore, two parameters were investigated, its purity (HPLC-UV) and the amount of salt load of the batch (ion chromatography). Since synthesized peptides contain primarily trifluoracetate anions, only anion chromatography was performed. The content was then calculated based on the assumption that peptide-related impurities are detected at the same UV-absorption rate as the target peptide, as well as that cations are not present in the sample.
Therefore, solutions from solid samples were prepared in different buffer systems with a concentration of 1.0 mg/mL compound based on the previously determined content. HPLC-UV was performed after 2 h of gentle agitation from the supernatant, which was obtained by 20 min of centrifugation at 4000 rpm. […] This analysis also served as t0 for the stability testing.
Instrument: Agilent 1100, column: X-Bridge C18 3.5 μm 2.1×150 mm (Waters), eluent: A: H20+500 ppm TFA/B: Methanol, flow: 0.55 ml/min, gradient: 0-5 min: 10-60% B; 5-15 min: 60-99% B; detection: 214 nm.

[2] = target: T1, human GLP-1 receptor (hGLP-1 R) (Homo sapiens, UniProt P43220); assay: cAMP response (HTRF) of HEK-293 cells stably expressing human GLP-1 receptor; assay type: cell-based; details: HEK-293 cells expressing human GLP-1 receptor, cAMP formation
T1 construct: expressed in transfected cells; host or cells: HEK-293
Method in brief: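 Detached HEK-293 cells stably expressing the receptor were suspended in HBSS with 20 mM HEPES, 0.1% BSA and 2 mM IBMX. Test compound was added for 30 min at room temperature, and cellular cAMP was quantified by HTRF.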

T1 sequence (P43220 24-463): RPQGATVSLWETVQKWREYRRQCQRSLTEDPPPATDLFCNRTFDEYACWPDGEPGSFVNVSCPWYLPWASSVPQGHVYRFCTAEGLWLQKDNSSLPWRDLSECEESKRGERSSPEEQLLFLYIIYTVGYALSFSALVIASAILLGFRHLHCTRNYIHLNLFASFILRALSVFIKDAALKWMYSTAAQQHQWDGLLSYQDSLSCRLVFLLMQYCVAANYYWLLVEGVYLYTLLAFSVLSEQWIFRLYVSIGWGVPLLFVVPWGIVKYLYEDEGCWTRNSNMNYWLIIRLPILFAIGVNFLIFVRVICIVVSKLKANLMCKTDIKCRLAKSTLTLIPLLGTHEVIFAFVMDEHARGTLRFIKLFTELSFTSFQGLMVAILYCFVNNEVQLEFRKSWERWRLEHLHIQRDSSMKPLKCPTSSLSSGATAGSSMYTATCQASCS

Compound: CCCCCCCCCCCCCCCC(=O)N[C@@H](CCC(=O)NCCCC[C@H](NC(=O)[C@H](CO)NC(=O)[C@@H]1CCCN1C(=O)[C@@H]1CCCN1C(=O)[C@@H]1CCCN1C(=O)[C@H](C)NC(=O)CNC(=O)[C@H](CO)NC(=O)[C@H](CO)NC(=O)[C@@H]1CCCN1C(=O)CNC(=O)CNC(=O)[C@H](C)NC(=O)[C@H](CCCCN)NC(=O)[C@H](CC(C)C)NC(=O)[C@H](Cc1c[nH]c2ccccc12)NC(=O)[C@H](CCC(=O)O)NC(=O)[C@@H](NC(=O)[C@H](Cc1ccccc1)NC(=O)[C@H](CC(=O)O)NC(=O)[C@H](CCC(N)=O)NC(=O)[C@H](C)NC(=O)[C@H](CCCNC(=N)N)NC(=O)[C@H](CCCNC(=N)N)NC(=O)[C@H](CO)NC(=O)[C@H](CC(=O)O)NC(=O)[C@H](CCSC)NC(=O)[C@H](CCC(N)=O)NC(=O)[C@H](CCCCN)NC(=O)[C@H](CO)NC(=O)[C@H](CC(C)C)NC(=O)[C@H](CC(=O)O)NC(=O)[C@H](CO)NC(=O)[C@@H](NC(=O)[C@H](Cc1ccccc1)NC(=O)[C@@H](NC(=O)CNC(=O)[C@H](CCC(N)=O)NC(=O)[C@@H](CO)NC(=O)[C@@H](N)Cc1c[nH]cn1)[C@@H](C)O)[C@@H](C)O)[C@@H](C)CC)C(N)=O)C(=O)O [(60)] (H-H[dS]QGTFTSDLSKQMDSRRAQDFIEWLKAGGPSSGAPPPSK([γGlu-Palmitoyl])-NH2)
- solubility at 2 h ([1]; pH 4.5): > 1000 µg/mL
- solubility at 2 h ([1]; pH 7.4): > 1000 µg/mL

Compound: CCCCCCCCCCCCCCCC(=O)N[C@@H](CCC(=O)NCCCC[C@H](NC(=O)[C@H](CO)NC(=O)[C@@H]1CCCN1C(=O)[C@@H]1CCCN1C(=O)[C@@H]1CCCN1C(=O)[C@H](C)NC(=O)CNC(=O)[C@H](CO)NC(=O)[C@H](CO)NC(=O)[C@@H]1CCCN1C(=O)CNC(=O)[C@@H](C)NC(=O)[C@H](CCCNC(=N)N)NC(=O)[C@H](CCCCN)NC(=O)[C@H](CC(C)C)NC(=O)[C@H](Cc1c[nH]c2ccccc12)NC(=O)[C@H](CCC(=O)O)NC(=O)[C@@H](NC(=O)[C@H](Cc1ccccc1)NC(=O)[C@H](CC(=O)O)NC(=O)[C@H](CCC(N)=O)NC(=O)[C@H](C)NC(=O)[C@H](CCCNC(=N)N)NC(=O)[C@H](CCCNC(=N)N)NC(=O)[C@H](CO)NC(=O)[C@H](CCC(=O)O)NC(=O)[C@H](CCSC)NC(=O)[C@H](CCC(N)=O)NC(=O)[C@H](CCCCN)NC(=O)[C@H](CO)NC(=O)[C@H](CC(C)C)NC(=O)[C@H](CC(=O)O)NC(=O)[C@H](CO)NC(=O)[C@@H](NC(=O)[C@H](Cc1ccccc1)NC(=O)[C@@H](NC(=O)CNC(=O)[C@H](CCC(N)=O)NC(=O)[C@@H](CO)NC(=O)[C@@H](N)Cc1c[nH]cn1)[C@@H](C)O)[C@@H](C)O)[C@@H](C)CC)C(N)=O)C(=O)O [(76)] (H-H[dS]QGTFTSDLSKQMESRRAQDFIEWLKR[dA]GPSSGAPPPSK([γGlu-Palmitoyl])-NH2)
- solubility at 2 h ([1]; pH 4.5): 952 µg/mL (≈ 199 µM)
- solubility at 2 h ([1]; pH 7.4): > 1000 µg/mL

Compound: CCCCCCCCCCCCCCCC(=O)N[C@@H](CCC(=O)NCCCC[C@H](NC(=O)[C@H](CO)NC(=O)[C@@H]1CCCN1C(=O)[C@@H]1CCCN1C(=O)[C@@H]1CCCN1C(=O)[C@H](C)NC(=O)CNC(=O)[C@H](CO)NC(=O)[C@H](CO)NC(=O)[C@@H]1CCCN1C(=O)CNC(=O)CNC(=O)[C@H](CCCCN)NC(=O)[C@H](CCCCN)NC(=O)[C@H](CC(C)C)NC(=O)[C@H](Cc1c[nH]c2ccccc12)NC(=O)[C@H](CCC(=O)O)NC(=O)[C@@H](NC(=O)[C@H](Cc1ccccc1)NC(=O)[C@H](CC(=O)O)NC(=O)[C@H](CCC(N)=O)NC(=O)[C@H](C)NC(=O)[C@H](CCCNC(=N)N)NC(=O)[C@H](CCCNC(=N)N)NC(=O)[C@H](CO)NC(=O)[C@H](CCC(=O)O)NC(=O)[C@H](CCSC)NC(=O)[C@H](CCC(N)=O)NC(=O)[C@H](CCCCN)NC(=O)[C@H](CO)NC(=O)[C@H](CC(C)C)NC(=O)[C@H](CC(=O)O)NC(=O)[C@H](CO)NC(=O)[C@@H](NC(=O)[C@H](Cc1ccccc1)NC(=O)[C@@H](NC(=O)CNC(=O)[C@H](CCC(N)=O)NC(=O)[C@@H](CO)NC(=O)[C@@H](N)Cc1c[nH]cn1)[C@@H](C)O)[C@@H](C)O)[C@@H](C)CC)C(N)=O)C(=O)O [(77)] (H-H[dS]QGTFTSDLSKQMESRRAQDFIEWLKKGGPSSGAPPPSK([γGlu-Palmitoyl])-NH2)
- solubility at 2 h ([1]; pH 4.5): > 1000 µg/mL
- solubility at 2 h ([1]; pH 7.4): > 1000 µg/mL

Compound: CCCCCCCCCCCCCCCC(=O)N[C@@H](CCC(=O)NCCCC[C@H](NC(=O)[C@H](CO)NC(=O)[C@@H]1CCCN1C(=O)[C@@H]1CCCN1C(=O)[C@@H]1CCCN1C(=O)[C@H](C)NC(=O)CNC(=O)[C@H](CO)NC(=O)[C@H](CO)NC(=O)[C@@H]1CCCN1C(=O)CNC(=O)CNC(=O)[C@H](CC(N)=O)NC(=O)[C@H](CCCCN)NC(=O)[C@H](CC(C)C)NC(=O)[C@H](Cc1c[nH]c2ccccc12)NC(=O)[C@H](CCC(=O)O)NC(=O)[C@@H](NC(=O)[C@H](Cc1ccccc1)NC(=O)[C@H](CC(=O)O)NC(=O)[C@H](CCCCN)NC(=O)[C@H](C)NC(=O)[C@H](CCCNC(=N)N)NC(=O)[C@H](CCCNC(=N)N)NC(=O)[C@H](CCC(=O)O)NC(=O)[C@H](CC(=O)O)NC(=O)[C@H](CCSC)NC(=O)[C@H](CCC(N)=O)NC(=O)[C@H](CCCCN)NC(=O)[C@H](CO)NC(=O)[C@H](CC(C)C)NC(=O)[C@H](CC(=O)O)NC(=O)[C@H](CO)NC(=O)[C@@H](NC(=O)[C@H](Cc1ccccc1)NC(=O)[C@@H](NC(=O)CNC(=O)[C@H](CCC(N)=O)NC(=O)[C@@H](CO)NC(=O)[C@@H](N)Cc1c[nH]cn1)[C@@H](C)O)[C@@H](C)O)[C@@H](C)CC)C(N)=O)C(=O)O [(70)] (H-H[dS]QGTFTSDLSKQMDERRAKDFIEWLKNGGPSSGAPPPSK([γGlu-Palmitoyl])-NH2)
- solubility at 2 h ([1]; pH 4.5): > 1000 µg/mL
- solubility at 2 h ([1]; pH 7.4): > 1000 µg/mL

Compound: CCCCCCCCCCCCCCCC(=O)N[C@@H](CCC(=O)NCCCC[C@H](NC(=O)[C@H](CO)NC(=O)[C@@H]1CCCN1C(=O)[C@@H]1CCCN1C(=O)[C@@H]1CCCN1C(=O)[C@H](C)NC(=O)CNC(=O)[C@H](CO)NC(=O)[C@H](CO)NC(=O)[C@@H]1CCCN1C(=O)CNC(=O)CNC(=O)[C@H](C)NC(=O)[C@H](CCCCN)NC(=O)[C@H](CC(C)C)NC(=O)[C@H](Cc1c[nH]c2ccccc12)NC(=O)[C@H](CCC(=O)O)NC(=O)[C@@H](NC(=O)[C@H](Cc1ccccc1)NC(=O)[C@H](CC(=O)O)NC(=O)[C@H](CCC(N)=O)NC(=O)[C@H](C)NC(=O)[C@H](CCCNC(=N)N)NC(=O)[C@H](CCCNC(=N)N)NC(=O)[C@H](CO)NC(=O)[C@H](CCC(=O)O)NC(=O)[C@H](CCSC)NC(=O)[C@H](CCC(N)=O)NC(=O)[C@H](CCCCN)NC(=O)[C@H](CO)NC(=O)[C@H](CC(C)C)NC(=O)[C@H](CC(=O)O)NC(=O)[C@H](CO)NC(=O)[C@@H](NC(=O)[C@H](Cc1ccccc1)NC(=O)[C@@H](NC(=O)CNC(=O)[C@H](CCC(N)=O)NC(=O)[C@@H](CO)NC(=O)[C@@H](N)Cc1c[nH]cn1)[C@@H](C)O)[C@@H](C)O)[C@@H](C)CC)C(N)=O)C(=O)O [(63)] (H-H[dS]QGTFTSDLSKQMESRRAQDFIEWLKAGGPSSGAPPPSK([γGlu-Palmitoyl])-NH2)
- solubility at 2 h ([1]; pH 4.5): > 1000 µg/mL
- solubility at 2 h ([1]; pH 7.4): > 1000 µg/mL

Compound: CCCCCCCCCCCCCCCC(=O)N[C@@H](CCC(=O)NCCCC[C@H](NC(=O)[C@H](CO)NC(=O)[C@@H]1CCCN1C(=O)[C@@H]1CCCN1C(=O)[C@@H]1CCCN1C(=O)[C@H](C)NC(=O)CNC(=O)[C@H](CO)NC(=O)[C@H](CO)NC(=O)[C@@H]1CCCN1C(=O)CNC(=O)CNC(=O)[C@H](CC(N)=O)NC(=O)[C@H](CCCCN)NC(=O)[C@H](CC(C)C)NC(=O)[C@H](Cc1c[nH]c2ccccc12)NC(=O)[C@H](CCC(=O)O)NC(=O)[C@@H](NC(=O)[C@H](Cc1ccccc1)NC(=O)[C@H](CC(=O)O)NC(=O)[C@H](CCC(N)=O)NC(=O)[C@H](C)NC(=O)[C@H](CCCNC(=N)N)NC(=O)[C@H](CCCNC(=N)N)NC(=O)[C@H](CO)NC(=O)[C@H](CCC(=O)O)NC(=O)[C@H](CCSC)NC(=O)[C@H](CCC(N)=O)NC(=O)[C@H](CCCCN)NC(=O)[C@H](CO)NC(=O)[C@H](CC(C)C)NC(=O)[C@H](CC(=O)O)NC(=O)[C@H](CO)NC(=O)[C@@H](NC(=O)[C@H](Cc1ccccc1)NC(=O)[C@@H](NC(=O)CNC(=O)[C@H](CCC(N)=O)NC(=O)[C@@H](CO)NC(=O)[C@@H](N)Cc1c[nH]cn1)[C@@H](C)O)[C@@H](C)O)[C@@H](C)CC)C(N)=O)C(=O)O [(61)] (H-H[dS]QGTFTSDLSKQMESRRAQDFIEWLKNGGPSSGAPPPSK([γGlu-Palmitoyl])-NH2)
- EC50 [2]: 4.2 pM

Compound: CCCCCCCCCCCCCCCC(=O)N[C@@H](CCC(=O)NCCCC[C@H](NC(=O)[C@@H]1CCCN1C(=O)[C@@H]1CCCN1C(=O)[C@@H]1CCCN1C(=O)[C@H](C)NC(=O)CNC(=O)[C@H](CO)NC(=O)[C@H](CO)NC(=O)[C@@H]1CCCN1C(=O)CNC(=O)CNC(=O)[C@H](CC(N)=O)NC(=O)[C@H](CCCCN)NC(=O)[C@H](CC(C)C)NC(=O)[C@H](Cc1c[nH]c2ccccc12)NC(=O)[C@H](CCC(=O)O)NC(=O)[C@@H](NC(=O)[C@H](Cc1ccccc1)NC(=O)[C@H](CC(=O)O)NC(=O)[C@H](CCC(N)=O)NC(=O)[C@H](C)NC(=O)[C@H](CCCNC(=N)N)NC(=O)[C@H](CCCNC(=N)N)NC(=O)[C@H](CO)NC(=O)[C@H](CC(=O)O)NC(=O)[C@H](CCSC)NC(=O)[C@H](CCC(N)=O)NC(=O)[C@H](CCCCN)NC(=O)[C@H](CO)NC(=O)[C@H](CC(C)C)NC(=O)[C@H](CC(=O)O)NC(=O)[C@H](CO)NC(=O)[C@@H](NC(=O)[C@H](Cc1ccccc1)NC(=O)[C@@H](NC(=O)CNC(=O)[C@H](CCC(N)=O)NC(=O)[C@H](CO)NC(=O)[C@@H](N)Cc1c[nH]cn1)[C@@H](C)O)[C@@H](C)O)[C@@H](C)CC)C(N)=O)C(=O)O [(6)]
- EC50 [2]: 3.1 pM
